The source of these data is ChEMBL document CHEMBL1201862, “PubChem BioAssay data set” (2004).

Structures are written as SMILES. The source made the active and inactive calls.

For test [1], the target named is T1, DNA repair protein RAD52 homolog (Homo sapiens, UniProt P43351).
T1 sequence (P43351 whole entry): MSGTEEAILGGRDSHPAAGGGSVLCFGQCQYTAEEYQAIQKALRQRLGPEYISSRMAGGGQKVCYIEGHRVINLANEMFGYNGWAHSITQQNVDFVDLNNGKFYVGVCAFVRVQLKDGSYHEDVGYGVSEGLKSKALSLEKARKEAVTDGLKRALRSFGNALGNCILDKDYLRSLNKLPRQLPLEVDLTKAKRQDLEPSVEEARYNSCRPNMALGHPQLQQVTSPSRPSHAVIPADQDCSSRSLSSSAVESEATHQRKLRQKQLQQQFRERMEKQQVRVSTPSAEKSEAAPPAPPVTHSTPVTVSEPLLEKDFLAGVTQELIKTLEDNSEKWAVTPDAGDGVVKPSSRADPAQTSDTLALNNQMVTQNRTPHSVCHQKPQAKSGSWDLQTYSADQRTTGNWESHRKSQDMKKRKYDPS
The class given is functional, biochemical.

In test [2] the target is 5-hydroxytryptamine receptor 2A (Mus musculus, UniProt P35363). The class given is functional, cell-based.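 Further: CHO-K1 cells with tagged receptor and beta-arrestin; agonist potency measured as compound-induced activation of the receptor.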
Chain of 5-hydroxytryptamine receptor 2A (P35363 whole entry): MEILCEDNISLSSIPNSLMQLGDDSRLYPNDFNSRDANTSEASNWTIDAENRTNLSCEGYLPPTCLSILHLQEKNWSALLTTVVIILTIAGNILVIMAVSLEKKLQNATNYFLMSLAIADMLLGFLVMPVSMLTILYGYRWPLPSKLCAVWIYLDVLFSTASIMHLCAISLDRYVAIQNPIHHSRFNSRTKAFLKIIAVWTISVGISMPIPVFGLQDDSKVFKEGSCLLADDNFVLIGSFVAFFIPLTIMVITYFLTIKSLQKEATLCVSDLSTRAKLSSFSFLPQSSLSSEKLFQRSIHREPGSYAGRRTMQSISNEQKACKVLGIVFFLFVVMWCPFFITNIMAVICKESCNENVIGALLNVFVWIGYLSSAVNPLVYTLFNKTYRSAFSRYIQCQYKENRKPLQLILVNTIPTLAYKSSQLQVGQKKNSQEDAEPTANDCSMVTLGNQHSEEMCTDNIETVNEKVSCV
For test [3], the target named is Mu-type opioid receptor (Homo sapiens, UniProt P35372). The class given is functional, cell-based.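 Further: U2OS cells with beta-arrestin recruitment to OPRM1 by beta-gal complementation.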
Chain of Mu-type opioid receptor (P35372 whole entry): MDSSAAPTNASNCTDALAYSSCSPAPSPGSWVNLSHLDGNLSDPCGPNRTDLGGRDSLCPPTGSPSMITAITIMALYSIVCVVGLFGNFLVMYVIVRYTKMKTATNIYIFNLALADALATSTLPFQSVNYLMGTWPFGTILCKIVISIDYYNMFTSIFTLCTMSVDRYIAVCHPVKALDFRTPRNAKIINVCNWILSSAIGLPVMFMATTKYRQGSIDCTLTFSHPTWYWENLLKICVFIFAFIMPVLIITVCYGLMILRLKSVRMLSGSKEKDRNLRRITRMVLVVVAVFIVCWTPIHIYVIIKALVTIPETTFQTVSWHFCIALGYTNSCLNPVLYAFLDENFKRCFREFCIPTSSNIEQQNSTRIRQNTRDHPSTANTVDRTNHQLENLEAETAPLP
The target in test [4] is Albumin (Bos taurus, UniProt P02769). The test is described as follows: Counterscreen for inhibitors of T-cell receptor (TCR)-CD3 interaction: Fluorescence-based biochemical high throughput dose response assay to identify inhibitors of T-cell receptor (TCR)-CD3 interaction using a TAMRA-labeled BSA probe. It counts as functional.
Chain of Albumin (P02769 whole entry): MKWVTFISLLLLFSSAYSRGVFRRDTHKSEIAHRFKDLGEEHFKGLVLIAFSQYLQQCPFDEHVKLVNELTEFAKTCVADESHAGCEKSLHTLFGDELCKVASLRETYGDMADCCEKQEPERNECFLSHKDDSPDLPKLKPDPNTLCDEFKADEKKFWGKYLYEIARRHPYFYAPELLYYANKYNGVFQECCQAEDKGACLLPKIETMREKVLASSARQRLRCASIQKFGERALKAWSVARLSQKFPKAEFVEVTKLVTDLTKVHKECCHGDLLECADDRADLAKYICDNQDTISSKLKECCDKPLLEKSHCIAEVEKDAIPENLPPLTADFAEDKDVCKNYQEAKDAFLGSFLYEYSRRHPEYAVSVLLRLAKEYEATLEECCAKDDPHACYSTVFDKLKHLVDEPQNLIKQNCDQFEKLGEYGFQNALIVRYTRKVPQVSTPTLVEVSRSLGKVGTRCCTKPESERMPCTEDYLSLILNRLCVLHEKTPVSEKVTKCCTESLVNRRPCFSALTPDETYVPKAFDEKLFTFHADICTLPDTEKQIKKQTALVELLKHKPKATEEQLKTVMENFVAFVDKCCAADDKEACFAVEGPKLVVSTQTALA
For test [5], the target named is T2, Long-chain-fatty-acid--AMP ligase FadD28 (Mycobacterium tuberculosis, UniProt P9WQ59).
T2 sequence (P9WQ59 whole entry): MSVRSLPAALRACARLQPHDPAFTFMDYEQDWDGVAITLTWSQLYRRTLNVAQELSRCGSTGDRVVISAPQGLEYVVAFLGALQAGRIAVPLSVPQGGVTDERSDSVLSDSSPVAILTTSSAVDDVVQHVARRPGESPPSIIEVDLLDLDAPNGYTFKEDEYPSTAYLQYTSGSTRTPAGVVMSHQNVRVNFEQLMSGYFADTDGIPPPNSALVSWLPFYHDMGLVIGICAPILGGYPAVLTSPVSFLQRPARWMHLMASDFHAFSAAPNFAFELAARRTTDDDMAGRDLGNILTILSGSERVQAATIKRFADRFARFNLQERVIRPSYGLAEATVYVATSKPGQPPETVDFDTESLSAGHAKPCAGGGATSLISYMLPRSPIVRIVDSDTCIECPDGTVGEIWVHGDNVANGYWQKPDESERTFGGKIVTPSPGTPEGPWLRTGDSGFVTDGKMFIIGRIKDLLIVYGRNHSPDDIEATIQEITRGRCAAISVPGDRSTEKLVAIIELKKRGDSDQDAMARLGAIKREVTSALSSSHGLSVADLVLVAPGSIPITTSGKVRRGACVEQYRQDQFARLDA
Kind of test: Fluorescence polarization aasay to screen for inhibitors that compete for the binding of FadD28 to a bisubstrate Measured in Biochemical System Using Plate Reader - 2147-01_Inhibitor_Dose_CherryPick_Activity. It counts as functional, Mycobacterium tuberculosis H37Rv. Background: Fluorescence polarisation rises when a labelled molecule tumbles more slowly, as on binding a larger partner.

Test [6] has as its target T3, Corticotropin-releasing factor receptor 2/Corticotropin-releasing factor-binding protein (Homo sapiens, UniProt P24387+Q13324).
T3 sequence (Q13324 whole entry): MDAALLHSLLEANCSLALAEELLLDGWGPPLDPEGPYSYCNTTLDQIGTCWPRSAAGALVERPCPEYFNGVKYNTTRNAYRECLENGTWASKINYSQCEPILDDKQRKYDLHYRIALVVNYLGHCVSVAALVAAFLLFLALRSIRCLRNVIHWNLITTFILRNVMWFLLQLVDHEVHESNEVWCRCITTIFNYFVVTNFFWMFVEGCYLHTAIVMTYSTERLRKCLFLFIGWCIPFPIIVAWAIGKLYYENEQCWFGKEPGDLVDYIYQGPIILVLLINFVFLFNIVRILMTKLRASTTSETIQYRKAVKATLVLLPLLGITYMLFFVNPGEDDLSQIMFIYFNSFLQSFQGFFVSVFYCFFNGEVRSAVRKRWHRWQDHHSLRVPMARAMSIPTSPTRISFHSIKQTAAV
T3 sequence (P24387 whole entry): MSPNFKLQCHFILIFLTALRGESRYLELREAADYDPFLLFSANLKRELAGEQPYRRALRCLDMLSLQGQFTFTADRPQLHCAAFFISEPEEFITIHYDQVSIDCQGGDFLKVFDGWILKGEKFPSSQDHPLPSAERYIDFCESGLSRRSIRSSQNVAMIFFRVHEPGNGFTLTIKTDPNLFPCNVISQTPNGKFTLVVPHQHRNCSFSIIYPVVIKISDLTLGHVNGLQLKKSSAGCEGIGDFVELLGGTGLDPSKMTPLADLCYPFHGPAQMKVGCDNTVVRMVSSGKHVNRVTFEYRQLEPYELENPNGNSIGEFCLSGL
The test is described as follows: activators of CRF receptor 2 with binding protein – uHTS hits, confirmation (AID 602473). Particulars: read-out: EC50_Mean. It counts as functional.

The target of test [7] is T3, Corticotropin-releasing factor receptor 2/Corticotropin-releasing factor-binding protein. The test is described as follows: Dose Response confirmation of uHTS hits for small molecule antagonists of the CRF-binding protein and CRF-R2 receptor complex. The class given is functional. As to conditions: read-out: IC50_Mean.
In test [8] the target is T4, Heat shock factor protein 1 (Mus musculus, UniProt P38532).
T4 sequence (P38532 whole entry): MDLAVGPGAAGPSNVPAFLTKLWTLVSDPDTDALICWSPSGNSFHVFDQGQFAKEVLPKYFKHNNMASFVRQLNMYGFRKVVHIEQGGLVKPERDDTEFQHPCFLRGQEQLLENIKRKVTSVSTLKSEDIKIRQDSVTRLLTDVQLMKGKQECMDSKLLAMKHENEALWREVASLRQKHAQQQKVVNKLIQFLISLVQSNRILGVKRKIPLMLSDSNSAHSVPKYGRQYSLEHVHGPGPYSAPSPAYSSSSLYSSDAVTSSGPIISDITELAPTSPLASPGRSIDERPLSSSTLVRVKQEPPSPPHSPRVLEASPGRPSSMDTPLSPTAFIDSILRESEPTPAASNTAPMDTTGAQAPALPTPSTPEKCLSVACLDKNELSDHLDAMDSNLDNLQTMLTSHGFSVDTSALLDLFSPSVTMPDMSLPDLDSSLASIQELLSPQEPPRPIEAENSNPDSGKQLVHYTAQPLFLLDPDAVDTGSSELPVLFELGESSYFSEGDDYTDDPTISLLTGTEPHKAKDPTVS
The test is described as follows: HSF1 potentiators in luciferase reporter cells, confirmation, cell-based, NIH3T3, luminescence, dose retest (AID 435004).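 Further: stress induced by proteasome inhibitor MG132 added 30 min after compound; luciferase reporter driven by HSF1 response element in NIH3T3 cells; actives raise luminescence as potentiators of the MG132 stress response.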 The class given is functional. On the technique in general: In a reporter assay the amount or activity of a reporter protein is the signal.

The target of test [9] is ADP-ribosylation factor GTPase-activating protein 1 (Rattus norvegicus, UniProt Q62848). Kind of test: Fluorescence polarization-based biochemical high throughput dose response screening assay to identify inhibitors of ADP-ribosylation factor GTPase activating protein 1 (ARFGAP1). It counts as functional.
Chain of ADP-ribosylation factor GTPase-activating protein 1 (Q62848 whole entry, the tested form may be a part): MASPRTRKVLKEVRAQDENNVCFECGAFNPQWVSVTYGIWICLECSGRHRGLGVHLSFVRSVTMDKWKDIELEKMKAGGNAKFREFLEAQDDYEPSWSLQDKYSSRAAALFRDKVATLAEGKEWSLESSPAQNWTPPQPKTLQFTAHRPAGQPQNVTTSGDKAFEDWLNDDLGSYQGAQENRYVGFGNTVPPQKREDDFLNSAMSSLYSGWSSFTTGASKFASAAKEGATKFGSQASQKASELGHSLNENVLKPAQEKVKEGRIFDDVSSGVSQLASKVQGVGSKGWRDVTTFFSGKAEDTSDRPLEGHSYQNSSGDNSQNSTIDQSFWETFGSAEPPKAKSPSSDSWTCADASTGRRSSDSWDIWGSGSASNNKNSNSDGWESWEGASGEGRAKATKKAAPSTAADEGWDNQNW
The target in test [10] is Arf-GAP with SH3 domain, ANK repeat and PH domain-containing protein 1 (Homo sapiens, UniProt Q9ULH1). It counts as functional.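 Further: biochemical fluorescence polarization dose–response screen measuring inhibition of ASAP1; ASAP1 GAP domain stimulating GTP hydrolysis by truncated human ARF1.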
Chain of Arf-GAP with SH3 domain, ANK repeat and PH domain-containing protein 1 (Q9ULH1 whole entry, the tested form may be a part): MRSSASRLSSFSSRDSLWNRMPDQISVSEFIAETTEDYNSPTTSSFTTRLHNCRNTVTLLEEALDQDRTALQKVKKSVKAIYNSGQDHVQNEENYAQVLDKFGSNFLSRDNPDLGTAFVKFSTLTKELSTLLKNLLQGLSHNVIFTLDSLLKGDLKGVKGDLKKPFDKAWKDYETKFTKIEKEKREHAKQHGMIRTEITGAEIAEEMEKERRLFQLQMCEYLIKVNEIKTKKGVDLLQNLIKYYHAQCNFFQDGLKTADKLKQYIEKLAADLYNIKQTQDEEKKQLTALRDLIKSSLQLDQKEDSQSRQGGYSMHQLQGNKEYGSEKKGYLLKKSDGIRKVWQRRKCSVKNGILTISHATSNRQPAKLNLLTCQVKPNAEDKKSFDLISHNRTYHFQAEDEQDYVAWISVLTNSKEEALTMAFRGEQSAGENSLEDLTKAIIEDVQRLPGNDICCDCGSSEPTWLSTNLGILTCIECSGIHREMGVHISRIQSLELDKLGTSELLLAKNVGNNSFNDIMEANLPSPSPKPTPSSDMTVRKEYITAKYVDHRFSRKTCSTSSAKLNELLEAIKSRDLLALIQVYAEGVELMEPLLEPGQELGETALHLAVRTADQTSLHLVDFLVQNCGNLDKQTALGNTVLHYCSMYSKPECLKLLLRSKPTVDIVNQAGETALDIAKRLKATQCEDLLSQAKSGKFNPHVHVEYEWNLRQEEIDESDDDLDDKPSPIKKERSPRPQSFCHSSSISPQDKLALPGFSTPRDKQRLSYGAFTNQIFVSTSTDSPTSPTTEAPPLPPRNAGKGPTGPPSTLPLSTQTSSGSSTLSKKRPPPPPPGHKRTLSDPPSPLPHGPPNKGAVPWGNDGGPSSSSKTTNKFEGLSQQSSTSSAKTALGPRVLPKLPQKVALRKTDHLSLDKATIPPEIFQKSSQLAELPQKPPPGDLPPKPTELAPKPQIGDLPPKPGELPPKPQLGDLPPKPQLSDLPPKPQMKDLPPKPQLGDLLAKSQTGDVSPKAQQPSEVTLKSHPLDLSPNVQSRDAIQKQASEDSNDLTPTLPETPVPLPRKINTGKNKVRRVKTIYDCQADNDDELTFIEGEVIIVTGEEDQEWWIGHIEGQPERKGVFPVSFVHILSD
Test [11] concerns the target T5, Short transient receptor potential channel 4 (Mus musculus, UniProt Q9QUQ5).
T5 sequence (Q9QUQ5 whole entry): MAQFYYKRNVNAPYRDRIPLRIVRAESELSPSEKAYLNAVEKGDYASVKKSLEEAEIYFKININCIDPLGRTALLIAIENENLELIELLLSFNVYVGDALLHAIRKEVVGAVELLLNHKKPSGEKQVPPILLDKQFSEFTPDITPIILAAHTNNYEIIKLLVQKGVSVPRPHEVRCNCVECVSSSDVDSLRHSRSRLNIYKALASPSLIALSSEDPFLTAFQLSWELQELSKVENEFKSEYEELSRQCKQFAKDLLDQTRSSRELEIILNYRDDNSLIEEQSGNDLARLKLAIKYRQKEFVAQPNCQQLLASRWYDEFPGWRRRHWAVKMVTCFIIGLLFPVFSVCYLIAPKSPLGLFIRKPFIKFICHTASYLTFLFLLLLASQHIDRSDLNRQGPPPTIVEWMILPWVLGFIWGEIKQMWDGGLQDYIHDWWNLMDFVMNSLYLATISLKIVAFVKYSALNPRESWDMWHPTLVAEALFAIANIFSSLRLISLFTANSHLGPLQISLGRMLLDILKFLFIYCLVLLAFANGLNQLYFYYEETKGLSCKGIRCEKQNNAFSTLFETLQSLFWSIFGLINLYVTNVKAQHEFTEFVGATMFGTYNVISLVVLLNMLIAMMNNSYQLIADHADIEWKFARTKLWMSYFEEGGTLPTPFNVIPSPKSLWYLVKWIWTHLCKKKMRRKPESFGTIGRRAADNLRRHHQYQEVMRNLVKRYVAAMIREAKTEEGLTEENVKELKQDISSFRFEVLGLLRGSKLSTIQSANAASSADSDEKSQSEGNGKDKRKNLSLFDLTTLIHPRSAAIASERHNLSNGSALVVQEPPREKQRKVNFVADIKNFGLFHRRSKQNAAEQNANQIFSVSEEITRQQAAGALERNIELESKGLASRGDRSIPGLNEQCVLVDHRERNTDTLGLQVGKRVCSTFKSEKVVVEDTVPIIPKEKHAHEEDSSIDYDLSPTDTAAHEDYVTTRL
Kind of test: mouse TRPC4 channel inhibitors, dose response, cell-based, HEK293 TRPC4/mu-opioid, Fluo-4 calcium (AID 434942).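 Further: potency of inhibitors blocking the TRPC4 calcium response.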 The class given is functional.

Test [12] has as its target T6, Histone-lysine N-methyltransferase NSD2 (Homo sapiens, UniProt O96028).
T6 sequence (O96028 whole entry): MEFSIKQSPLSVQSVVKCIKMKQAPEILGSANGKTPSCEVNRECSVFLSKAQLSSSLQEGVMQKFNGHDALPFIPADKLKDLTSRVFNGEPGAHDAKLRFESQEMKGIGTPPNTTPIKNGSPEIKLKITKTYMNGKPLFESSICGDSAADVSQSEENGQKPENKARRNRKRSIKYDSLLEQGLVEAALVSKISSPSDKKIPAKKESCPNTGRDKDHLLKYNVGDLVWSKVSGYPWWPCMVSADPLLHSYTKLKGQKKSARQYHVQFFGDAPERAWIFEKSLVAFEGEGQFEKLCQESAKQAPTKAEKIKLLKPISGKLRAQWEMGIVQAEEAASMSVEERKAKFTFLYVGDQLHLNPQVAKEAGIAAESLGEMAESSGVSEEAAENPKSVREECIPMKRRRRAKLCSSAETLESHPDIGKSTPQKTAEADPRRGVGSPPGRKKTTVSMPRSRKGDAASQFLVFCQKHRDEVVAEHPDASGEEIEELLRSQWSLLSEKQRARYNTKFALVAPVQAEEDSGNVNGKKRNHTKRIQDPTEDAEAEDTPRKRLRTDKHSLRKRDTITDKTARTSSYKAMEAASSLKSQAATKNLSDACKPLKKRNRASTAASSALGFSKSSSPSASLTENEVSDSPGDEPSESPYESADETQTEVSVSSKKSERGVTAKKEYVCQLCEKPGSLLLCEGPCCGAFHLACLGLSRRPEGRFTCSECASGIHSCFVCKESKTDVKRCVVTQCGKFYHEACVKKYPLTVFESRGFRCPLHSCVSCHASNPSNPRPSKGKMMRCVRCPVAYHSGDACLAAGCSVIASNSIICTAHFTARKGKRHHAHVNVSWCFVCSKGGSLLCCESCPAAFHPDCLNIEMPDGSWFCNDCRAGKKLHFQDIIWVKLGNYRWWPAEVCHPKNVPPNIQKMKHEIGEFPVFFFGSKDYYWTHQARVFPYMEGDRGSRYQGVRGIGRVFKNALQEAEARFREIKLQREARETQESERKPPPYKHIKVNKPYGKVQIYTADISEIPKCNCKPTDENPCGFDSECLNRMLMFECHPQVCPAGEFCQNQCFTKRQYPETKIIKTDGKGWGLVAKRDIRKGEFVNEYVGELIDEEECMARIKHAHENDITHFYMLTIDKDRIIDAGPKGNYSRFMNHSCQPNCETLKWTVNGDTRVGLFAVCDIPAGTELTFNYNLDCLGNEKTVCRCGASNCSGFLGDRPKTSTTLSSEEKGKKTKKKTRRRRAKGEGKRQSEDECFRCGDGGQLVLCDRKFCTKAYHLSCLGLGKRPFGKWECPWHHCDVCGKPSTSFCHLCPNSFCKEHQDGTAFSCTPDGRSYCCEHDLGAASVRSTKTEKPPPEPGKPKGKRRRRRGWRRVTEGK
It counts as biochemical.

What is called AC50 is the concentration at which the activity in the assay is half-maximal. `Nc1ccc(CC2=NCCN2)cc1`: the AC50 in [1] was 0.739 µM (active).
On to `COc1ccc(CC2(CO)CCN(Cc3cc4ccccc4o3)CC2)cc1`, for which the results for the EC50 in test [2] and in test [3] were 1.07 µM (active) and 92.5 µM (inactive), respectively.
Regarding `COc1ccc(C(=O)NC(=S)NNC(=O)c2ccc(O)cc2)cc1[N+](=O)[O-]`, the IC50 in [4] was > 94.1 µM (inactive).
Regarding `CN1c2ccccc2C(O)=C(C(S)=Nc2ccc(Cl)cc2)S1(=O)=O`, the AC50 in test [5] is > 100 µM (inactive). Besides, the EC50 is > 53 µM (inactive) in [6] and > 260 µM (inconclusive) in test [8]. Further, the IC50 in test [7] is 24.7 µM (active).
For the compound `O=C(COc1ccc2oc(-c3ccco3)cc(=O)c2c1)N1CCCCC1`, the IC50 in test [9] is 28.5 µM (inactive); in test [10], 22.4 µM (inactive).
Regarding `CC(COc1ccccc1)N1CCC(CO)(Cc2ccccc2)CC1` (stereo unspecified), the EC50 in [11] is 5.96 µM (active); in [2], 0.59 µM (active); in [3], 92.5 µM (inactive).
Regarding `CNCCCC12CCC(c3ccccc31)c1ccccc12` [MAPROTILINE], the AC50 in test [12] was > 20 µM (inactive).
In the case of `COc1ccc(CN2CCN(c3ccccn3)CC2)c(OC)c1`, the EC50 was 0.529 µM (active) in test [2] and 92.5 µM (inactive) in test [3].
